Measurements as given in US9675555B2, “Liposome-encapsulated bicelles and use thereof in diluted systems” (priority 2010, dated 2017).
Counter-ions that a name gives are not always drawn.

system: not listed separately; assay: Incorporation of different substances into the systems; format: physicochemical; conditions: not given
Description: The incorporation was made in the step of formation of the bicelles. Depending on the hydrophilic or lypophilic character of the substance, this was added together with the lipids forming the bicelle in the chloroform step or together with the hydration water. For these preparations, the following blends: DPPC/DHPC, DMPC/DHPC and DOPC/DHPC were selected. The DOPC is dioleoylphosphatidylcholine. The work was carried out with molar rates of the concentrations of both lipids between 2 and 3.5.
The samples were submitted between 10 and 50 sonication cycles in an ultrasound bath for a period of 5 minutes and 5 minutes of freezing until they became clear.
These bicelles, together with the substances internally contained were encapsulated in liposomes in the form described in example 1 and were characterized according to the methods described in example 2.
The nistatine molecule was incorporated to the systems of the invention as described in example 3.

Row | Molecule | encapsulation within the bicelles contained within the liposomes of the invention
1 | O=C(O)c1ccccc1Nc1cccc(C(F)(F)F)c1 [flufenamic acid] | efficiently encapsulated
2 | Cn1c(=O)c2c(ncn2C)n(C)c1=O [caffeine] | efficiently encapsulated
3 | [Fe] [iron] | efficiently encapsulated
4 | ceramides | efficiently encapsulated
5 | CC(C)CCC[C@@H](C)[C@H]1CC[C@H]2[C@@H]3CC=C4C[C@@H](OS(=O)(=O)O)CC[C@]4(C)[C@H]3CC[C@]12C [cholesterol sulfate] | efficiently encapsulated
6 | O=C(O)Cc1ccccc1Nc1c(Cl)cccc1Cl [dichlophenac] | efficiently encapsulated
7 | CNC(=O)CN(CCN(CCN(CC(=O)[O-])CC(=O)NC)CC(=O)[O-])CC(=O)[O-].[Gd+3] [gadodiamide] | efficiently encapsulated

same assay, conditions: high water content system

Row | Molecule | quantity of nistatine incorporated into the system of the invention
8 | nistatine | about 15.75 mg/ml

system: Candida albicans fungus; assay: Microbiologic activity of nistatine (MIC); format: cell-based; conditions: nistatine incorporated to the liposomes of the invention

Row | Molecule | minimum inhibitory concentration (MIC) [µg/mL]
9 | nistatine | 16
